Data reported in patent US20210330611A1, “THERAPY FOR NEUROLOGICAL DISEASES/DISORDERS” (priority 2020, published 2021).
pIC50: −log10 of the molar value. Structures can show the parent of a compound that is named as a salt. Where two headings read alike, the source gives them in different places.

Key:
[1] = test system: fibrin-induced microglia activation; assay: Image-based assay of fibrin-induced microglia activation (HTS and dose response); assay type: cell-based, rat; details: for pIC50 / IC50 / inhibition at 10 µM: Rattus norvegicus, Microglia; for pIC50: read-out: Fibrin IC50; for IC50: read-out: Fibrin IC50 (uM) (Suppl. Table 7); for inhibition at 10 µM: primary microglia HTS, fibrin stimulation, increased cell size (>800 μm^2) as marker of activation, read-out: Fibrin % inhibition
in vitro [2] = details: rat, Cell Toxicity IC50 (uM) [cFib assay]
[3] = test system: LPS-induced microglia activation; assay: Image-based assay of LPS-induced microglia activation (HTS and dose response); assay type: cell-based, rat; details: Rattus norvegicus, Microglia; for pIC50: read-out: LPS IC50; for inhibition at 10 µM: primary microglia HTS, LPS stimulation, increased cell size (>800 μm^2) as marker of activation, read-out: LPS % inhibition; for IC50: read-out: LPS IC50 (uM) (Suppl. Table 7)
primary rat microglia [4] = assay: Cell toxicity (dead cells, size <150 μm2) in LPS assay; details: for LPS % cell toxicity: primary microglia HTS, LPS stimulation, decreased size (<150 μm^2) as marker of toxicity; for IC50: read-out: Cell Toxicity IC50 (uM) [LPS assay], LPS assay
primary rat microglia [5] = assay: Cell toxicity (dead cells, size <150 μm2) in coated fibrin (cFib) assay; details: primary microglia HTS, fibrin stimulation; decreased size (<150 μm^2) as marker of toxicity;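 for Fibrin % cell toxicity: share of dead cells sized under 150 µm2 at 10 µM in fibrin-stimulated microglia HTS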
[6] = test system: fibrin- and LPS-induced microglia activation; assay: cells; assay type: cell-based, rat; details: for inhibition at 10 µM: Rattus norvegicus
in vitro [7] = details: rat
[8] = 48 h, Table 1, dose response 0.001-20 μM, triplicates, primary rat microglia, 48 h
[9] = dose response, fibrin-induced microglia activation
[10] = fibrin-induced microglia activation, dose response
[11] = LPS-induced microglia activation, dose response
[12] = dose response, LPS-induced microglia activation
[13] = HTS of 1907 compounds, quadrant by fibrin and LPS inhibition
[14] = Microglia, Table 3, read-out: Cherry-picked Hit (Suppl. Table 7)
[15] = Microglia, HTS hit classification, read-out: Hit
[16] = quadrant by fibrin and LPS inhibition in HTS of 1907 compounds
[17] = hit classification in microglia HTS, read-out: Cherry-picked Hit (Suppl. Table 7)

Structure (SMILES)	Fibrin Selectivity [1]	Fibrin Selectivity (LOG10) [1]	pIC50 [1, 8]	IC50 ([1]; Table 3) [µM]	pIC50 [1, 9]	IC50 [1, 10] [µM]	inhibition at 10 µM [1] [%]	IC50 (in vitro [2]; cFib assay) [µM]	pIC50 [3, 8]	inhibition at 10 µM ([3]; 48 h) [%]	IC50 [3, 11] [µM]	pIC50 [3, 12]	LPS % cell toxicity (primary rat microglia [4]) [%]	Fibrin % cell toxicity (primary rat microglia [5]) [%]	Quadrant (FIG. 5b) [6, 13]	inhibition at 10 µM [6, 15] [%]	Quadrant (FIG. 5b) ([6]; Table 1, screen at 10 μM)	Quadrant (FIG. 5b) [6, 16]	pIC50 (in vitro [7])	inhibition at 10 µM [6, 17] [%]	further results
[H]/N=C(/NCCCCC)N/N=C/c1c[nH]c2ccc(OC)cc12 [Tegaserod maleate, reference compound]	20	1.29	6.00	1	6.00	1	100	> 20	4.72	86	19	4.72	2	2	Q2	> 50	Q2	Q2	< 4.70		IC50 (in vitro [2]; Table 3): > 20 µM; IC50 ([3]; Table 3): 19 µM; IC50 (primary rat microglia [4]): > 20 µM; inhibition at 10 µM [6, 14]: > 50%; Quadrant (FIG. 5b) ([6]; Table 3, screen at 10 μM): Q2
CN1CCN2c3ncccc3Cc3ccccc3C2C1 (stereo not shown) [Mirtazapine, reference compound]			< 4.70		< 4.70	> 20	57	> 20	< 4.70	36	> 20	< 4.70	1	2	Q3	> 50	Q3	Q3	< 4.70	> 50	
C=C1C[C@H]2[C@@H]3C=C(C)C4=CC(=O)CC[C@]4(C)[C@H]3CC[C@]2(C)[C@@]1(OC(C)=O)C(C)=O [Melengestrol acetate, reference compound]	196	2.29	7.15	0.07	7.15	0.07	86	> 20	4.89	67	13	4.89	2	2	Q2	> 50	Q2	Q2	< 4.70		IC50 ([1]; Table 6): 0.07 µM; Fibrin Selectivity (LOG10) ([1]; fibrin vs LPS, LOG10, Table 6): 2.29; Fibrin Selectivity ([1]; fibrin vs LPS, Table 6): 196; IC50 (in vitro [2]; Table 3): > 20 µM; IC50 (in vitro [2]; cFib assay, Table 6): > 20 µM; IC50 ([3]; Table 3): 13 µM; IC50 ([3]; Table 6): 13 µM; IC50 (primary rat microglia [4]): > 20 µM; IC50 (primary rat microglia [4]; Table 6): > 20 µM; inhibition at 10 µM [6, 14]: > 50%; Quadrant (FIG. 5b) ([6]; Table 3, screen at 10 μM): Q2; Quadrant (FIG. 5b) ([6]; microglia HTS, Table 6): Q2
CC(=O)O[C@]1(C(C)=O)CC[C@H]2[C@@H]3C=C(Cl)C4=CC(=O)CC[C@]4(C)[C@H]3CC[C@@]21C [Chlormadinone acetate, reference compound]							72	> 20	< 4.70	43	> 20	< 4.70	0	1	Q3	> 50	Q3	Q3	< 4.70	> 50	
CN(C)CCCOc1nn(Cc2ccccc2)c2ccccc12 [Benzydamine hydrochloride, reference compound]			5.22		5.22	6	75	20	5.52	102	3	5.52	6	1	Q2	> 50	Q2	Q2	5.10	> 50	
